Test systems include NCI/ADR-RES; CCRF-CEM; SNB-75; KM12; COLO 205; IGROV-1; HT-29; SK-OV-3; NCI-H522; MOLT-4; ACHN; EKVX; HOP-92; TK-10; 786-0; RXF 393; A498; SF-539; HCC 2998.
Assay in all cases: NCI tumour cell line growth inhibition, 48 h

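All cell lines were grown in 96-well plates and treated with compound for 48 hours. GI50 = concentration required for 50% inhibition of growth.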 Calls of active or inactive are those of the source. Rule as the data show it: active = GI50 up to about 1.1 µM and inactive = higher.

Consider `COP(=O)(OC)C(N)CCSC` (stereo not given), for which the GI50 with NCI/ADR-RES, in the test on CCRF-CEM, in the test with SNB-75, with KM12, in the test with COLO 205 and in the test on IGROV-1 was > 100 µM (inactive) throughout. Further, the GI50 in the test on HT-29, in the test with SK-OV-3, in the test with NCI-H522, in the test on MOLT-4, with ACHN and in the test on EKVX was > 100 µM (inactive) throughout. For the same compound, the GI50 in the test with HOP-92, in the test on TK-10 and with 786-0 was > 100 µM (inactive) in each case.
On to `O=C(c1ccc(Cl)cc1)N1CCN=C1c1cc2ccccc2c2ccccc12`, for which the GI50 in the test with RXF 393 was 16.1 µM (inactive); in the test on A498, 15.4 µM (inactive); in the test with NCI/ADR-RES, 15.6 µM (inactive); with CCRF-CEM it was 27.4 µM (inactive); in the test on SNB-75 it was 12.4 µM (inactive); with KM12 it was 15.8 µM (inactive). Moreover, the GI50 is 16 µM (inactive) with COLO 205; 14.3 µM (inactive) in the test with IGROV-1; 15.8 µM (inactive) in the test on HT-29; 16.1 µM (inactive) in the test on SK-OV-3; 33.7 µM (inactive) in the test on MOLT-4; 17.4 µM (inactive) with ACHN. The GI50 with EKVX was 13.8 µM (inactive); in the test with SF-539, 15.7 µM (inactive); with HOP-92 it was 11.6 µM (inactive); with TK-10 it was 15.2 µM (inactive); in the test with 786-0, 16.7 µM (inactive).
As for `CCCn1c(CN(Cc2nc3ccccc3n2CCC)Cc2nc3ccccc3n2CCC)nc2ccccc21`, the GI50 in the test on RXF 393 was 0.249 µM (active); in the test on A498, 4.74 µM (inactive); with NCI/ADR-RES, 8.69 µM (inactive); in the test on CCRF-CEM, 2.76 µM (inactive); with SNB-75, 6.79 µM (inactive); in the test on KM12, 4.68 µM (inactive). The GI50 in the test on COLO 205 was 2.81 µM (inactive); in the test on IGROV-1 it was 1.94 µM (inactive); in the test on HT-29, 2.25 µM (inactive); in the test on SK-OV-3, 41.5 µM (inactive); in the test on NCI-H522, 4.63 µM (inactive); in the test with MOLT-4, 3.21 µM (inactive). Further, the GI50 in the test with ACHN was 2.11 µM (inactive); in the test on EKVX, 0.966 µM (active); with SF-539 it was 4.2 µM (inactive); in the test with HCC 2998, 5.68 µM (inactive); in the test with HOP-92 it was 3.03 µM (inactive); in the test with TK-10 it was 15.7 µM (inactive).
Consider `Cc1c(C#N)c2nnn(C)c(=O)n2c1-c1ccccc1`, for which the GI50 is > 100 µM (inactive) in the test on RXF 393; 98.6 µM (inactive) with A498; 17.5 µM (inactive) with NCI/ADR-RES; 64.1 µM (inactive) with CCRF-CEM; 23.6 µM (inactive) in the test on SNB-75; 57.1 µM (inactive) in the test with KM12. Also, the GI50 was > 100 µM (inactive) in the test with SK-OV-3; > 100 µM (inactive) with ACHN; 56 µM (inactive) in the test with EKVX; > 100 µM (inactive) in the test with SF-539; > 100 µM (inactive) in the test with HCC 2998; > 100 µM (inactive) with HOP-92. The GI50 in the test with TK-10 was > 100 µM (inactive).
For `O=C1C[C@H](Sc2ccccc2)C2(OCCO2)[C@H]2ON3CCC[C@@H]3[C@@H]12`, the GI50 in the test with RXF 393 was 1.69 µM (inactive); in the test on A498, 13.2 µM (inactive); with NCI/ADR-RES, 4.61 µM (inactive); with CCRF-CEM, 0.127 µM (active); with SNB-75, 3.66 µM (inactive); in the test on KM12, 1.36 µM (inactive). Besides, the GI50 in the test on COLO 205 is 1.66 µM (inactive); in the test with IGROV-1, 0.9 µM (active); in the test with HT-29, 0.759 µM (active); with SK-OV-3 it was 3.13 µM (inactive); in the test with NCI-H522, 0.321 µM (active); with MOLT-4, 0.333 µM (active). Moreover, the GI50 in the test with ACHN was 2.1 µM (inactive); in the test on EKVX it was 2.53 µM (inactive); in the test with SF-539, 1.2 µM (inactive); in the test on HCC 2998, 2.57 µM (inactive); with HOP-92 it was 1.24 µM (inactive); with TK-10 it was 3.61 µM (inactive). Besides, in the test on 786-0, the GI50 was 1.21 µM (inactive).
Turning to `O=C(CSc1nc2ccccc2c2ccccc12)c1ccccc1`, the GI50 with RXF 393 is > 100 µM (inactive); with A498 it was > 100 µM (inactive); in the test with NCI/ADR-RES it was > 100 µM (inactive); with SNB-75 it was 13.8 µM (inactive); with KM12 it was > 100 µM (inactive); in the test with COLO 205, > 100 µM (inactive). In addition, the GI50 with IGROV-1, in the test with HT-29, with NCI-H522, with MOLT-4, in the test on ACHN and with EKVX was > 100 µM (inactive) each time. Also, the GI50 in the test with SF-539, in the test with HOP-92, in the test with TK-10 and with 786-0 was > 100 µM (inactive) each time.
In the case of `CCCSc1ccc2[nH]c(N3C(=O)/C(=C/c4cc(OC)c(OC)c(OC)c4)N=C3c3ccccc3)cc2c1`, the GI50 was 7.73 µM (inactive) in the test on RXF 393; 0.871 µM (active) in the test on A498; 11.6 µM (inactive) in the test with NCI/ADR-RES; 7.94 µM (inactive) in the test on CCRF-CEM; 10.8 µM (inactive) in the test with SNB-75; 1.65 µM (inactive) in the test on KM12. Also, the GI50 was 8.43 µM (inactive) with COLO 205; 9.38 µM (inactive) in the test on IGROV-1; 7.82 µM (inactive) with HT-29; 1.6 µM (inactive) in the test with SK-OV-3; 8.97 µM (inactive) with NCI-H522; 10.9 µM (inactive) with MOLT-4. The GI50 is 23 µM (inactive) in the test with ACHN; 5.74 µM (inactive) in the test on EKVX; 1.72 µM (inactive) in the test on SF-539; 13.2 µM (inactive) in the test with HCC 2998; 13.9 µM (inactive) in the test on HOP-92; 17 µM (inactive) in the test on TK-10. The GI50 in the test with 786-0 is 3.24 µM (inactive).
As to `O=S1(=O)CS(=O)(=O)OCCCO1`, the GI50 with RXF 393 was > 100 µM (inactive); in the test with A498, > 100 µM (inactive); with NCI/ADR-RES, > 100 µM (inactive); in the test on CCRF-CEM, 63.8 µM (inactive); in the test on SNB-75 it was 51.8 µM (inactive); in the test with KM12, > 100 µM (inactive). The GI50 is > 100 µM (inactive) in the test with COLO 205; > 100 µM (inactive) in the test with IGROV-1; > 100 µM (inactive) in the test on HT-29; > 100 µM (inactive) in the test on SK-OV-3; > 100 µM (inactive) in the test with NCI-H522; 51.3 µM (inactive) with MOLT-4. The GI50 is 52.1 µM (inactive) in the test with ACHN; > 100 µM (inactive) in the test with EKVX; 54.1 µM (inactive) in the test on SF-539; > 100 µM (inactive) in the test with HCC 2998; > 100 µM (inactive) in the test with HOP-92; > 100 µM (inactive) in the test on TK-10. For the same compound, the GI50 with 786-0 is > 100 µM (inactive).
Turning to `CS/C(=N\S(=O)(=O)c1ccc(Cl)cc1)NCCN/C(=N/S(=O)(=O)c1ccc(Cl)cc1)SC`, the GI50 in the test with A498 was 37.5 µM (inactive); in the test with NCI/ADR-RES, > 100 µM (inactive); with CCRF-CEM, > 100 µM (inactive); in the test on SNB-75, 24.4 µM (inactive); with COLO 205, > 100 µM (inactive); in the test with IGROV-1 it was > 100 µM (inactive). Besides, the GI50 in the test on HT-29 is > 100 µM (inactive); in the test with SK-OV-3, 23.6 µM (inactive); in the test with NCI-H522 it was 2.58 µM (inactive); in the test on MOLT-4 it was > 100 µM (inactive); with ACHN, > 100 µM (inactive); in the test on EKVX, 18.7 µM (inactive). Besides, the GI50 with SF-539 was 61.4 µM (inactive); with HCC 2998, > 100 µM (inactive); in the test on HOP-92, 14.2 µM (inactive); in the test with TK-10, 31.6 µM (inactive); with 786-0 it was 24.8 µM (inactive).
For `O=C1/C(=C\c2cccc(Oc3ccccc3)c2)SC(c2ccccc2)N1c1cccc([N+](=O)[O-])c1` (stereo not given), the GI50 with RXF 393 is > 100 µM (inactive); in the test with A498, > 100 µM (inactive); with NCI/ADR-RES it was 82.8 µM (inactive); in the test on CCRF-CEM, 21.7 µM (inactive); in the test with KM12, 72.1 µM (inactive); in the test with COLO 205, > 100 µM (inactive). In addition, the GI50 in the test with HT-29 is 33.9 µM (inactive); in the test on SK-OV-3 it was > 100 µM (inactive); in the test on NCI-H522, 57.5 µM (inactive); in the test on MOLT-4, 40.7 µM (inactive); in the test on ACHN, > 100 µM (inactive); with EKVX it was > 100 µM (inactive). Besides, the GI50 is 25.1 µM (inactive) in the test on SF-539; > 100 µM (inactive) in the test on HCC 2998; 45.7 µM (inactive) in the test with HOP-92; > 100 µM (inactive) in the test with TK-10; > 100 µM (inactive) in the test on 786-0.
For the compound `Cc1sc(Cc2ccccc2)nc1-c1ccc(N)cc1`, the GI50 with A498 is 29.4 µM (inactive); in the test with NCI/ADR-RES it was 27.7 µM (inactive); with CCRF-CEM, 15.9 µM (inactive); with KM12, 17 µM (inactive); with COLO 205, 23.1 µM (inactive); with IGROV-1 it was 27.9 µM (inactive). Besides, the GI50 is 22.6 µM (inactive) with HT-29; 16 µM (inactive) with NCI-H522; 13.8 µM (inactive) in the test on MOLT-4; 31.2 µM (inactive) with ACHN; 31.4 µM (inactive) with EKVX; 19.1 µM (inactive) with HCC 2998. The GI50 in the test on HOP-92 is 13.8 µM (inactive); in the test with TK-10 it was 47.5 µM (inactive).
As for `COc1cc(Nc2nc3cc(C(F)(F)F)ccc3n3cccc23)cc(OC)c1OC`, the GI50 was 3.93 µM (inactive) in the test with RXF 393; > 100 µM (inactive) in the test on A498; 9.4 µM (inactive) with NCI/ADR-RES; 4.54 µM (inactive) in the test on CCRF-CEM; > 100 µM (inactive) in the test on SNB-75; > 100 µM (inactive) in the test on COLO 205. In addition, the GI50 with IGROV-1 is > 100 µM (inactive); with SK-OV-3, > 100 µM (inactive); in the test with NCI-H522, > 100 µM (inactive); in the test with MOLT-4, 8.49 µM (inactive); in the test on ACHN it was > 100 µM (inactive); with EKVX, > 100 µM (inactive). The GI50 in the test on SF-539, in the test with HCC 2998, in the test on HOP-92 and with TK-10 was > 100 µM (inactive) each time.

The values are drawn from ChEMBL document CHEMBL1201862, “PubChem BioAssay data set” (2004).
